Structures can show the parent of a compound that is named as a salt.

One series deals with T1, human GPR4 (Homo sapiens, UniProt P46093).
T1 construct: expressed in transfected cells; expression induced by 17β-estradiol
In words: GPR4 antagonism, luciferase reporter assay in human GPR4 assay cells. Particulars: 1 μmol/L test compound, 10 nmol/L 17β-estradiol, 6 hours, firefly luciferase reporter; for inhibition at 1 µM: read-out: Inhibition rate (%). The series is classed as cell-based. The method, then:
Assay cells for human GPR4 were constructed according to the method descried in WO03/087366. By using the assay cells, the constitutive activity of human GPR4 can be detected by activity of a reporter (firefly luciferase).
Plasmid pAGal9-GPR4 for inducible expression of human GPR4 (2 μg: WO03/087366) and reporter plasmid pACREpluc (2 μg; WO03/087366) were co-transferred into 6×10^6 cells of KJMGER8 (WO03/087366) by electroporation. The resultant transformant was suspended in 8 mL of a RPMI1640-ITPSG medium [RPMI medium (Nissui Pharmaceutical Co., Ltd.) containing 6 mmol/L of L-glutamine (Invitrogen Corp.), 100 units/ml of penicillin (Invitrogen Corp.), 100 μg/ml of streptomycin (Invitrogen Corp.), 10 mmol/L of N-2-hydroxyethylpiperazine-N′-2-ethanesulfonic acid (HEPES) (Nacalai Tesque Inc.), 3 μg/ml of insulin (Sigma Co. Ltd.), 5 μg/ml of transferrin (Sigma Co. Ltd.), 5 mmol/L of sodium pyruvate (Wako Pure Chemical Industries, Ltd.), 125 nmol/L of selenious acid (Nacalai Tesque Inc.), and 1 mg/ml of galactose (Nacalai Tesque Inc.)], followed by culture in a CO^2 incubator at 37° C. for 24 hours. After the culture, blasticidin S (Funakoshi Co., Ltd., 2.0 μg/ml), hygromycin B (Wako Pure Chemical Industries, Ltd., 300 μg/ml), and geneticin (Nacalai Tesque Inc., 500 μg/ml) were added to the culture solution, followed by further culture for 14 days to prepare a stable transformant (referred to as “GPR4 assay cells”). The transformant was subcultured in a RPMI1640-ITPSG medium containing blastocidin S (Funakoshi Co., Ltd., 2.0 μg/ml), hygromycin B (manufactured by Wako Pure Chemical Industries, Ltd., 300 μg/ml), and geneticin (Nacalai Tesque Inc., 500 μg/ml).
Similarly, control plasmid pAGal9-nd (2 μg; WO03/087366) and reporter plasmid pACREpluc (2 μg; WO03/087366) were co-transferred in KJMGER8 to prepare a stable transformant (referred to as “control cells”).
The resulting human GPR4 assay cells (expressing GPR4 by stimuli of 17β-estradiol) were seeded onto a white plate at a concentration of 10^5 cells per well. Then, 17β-estradiol (Sigma Co. Ltd.), which was diluted with a medium so that the concentration in the reaction solution was 10 nmol/L, and 1 μmol/L of test compound were added to each well, followed by reaction in a 5% CO2 incubator at 37° C. for 6 hours. Then, a Steady Glo Luciferase Assay System (Promega Co., Ltd.) solution was added to terminate the reaction, and the quantity of light emitted per second was measured by a TOP count (Packard, Meriden, Conn., USA).
The activity (GPR4 antagonism) of the test compound was shown by an inhibition rate calculated on the basis of counts (counts per second) in the presence or absence of 17β-estradiol according to the following equation:
[formula] wherein A, B, and C represent the following values: […]
A: counts when 17β-estradiol and test compound were added
B: counts when neither 17β-estradiol nor test compound was added
C: counts when only 17β-estradiol was added

The subject of series [1] is LPC-induced neutrophil infiltration into airway. In words: Inhibitory activity on LPC-induced neutrophil infiltration into airway (Test Example 2). The series is classed as in vivo. The following applies: 100 mg/kg orally 1 hour before intratracheal LPC; BALF 6 hours after LPC; male BALB/c mice. As to the method:
male BALB/c mice of 7-week old were intratracheally administered with 0.1 ml of a 1 mg/mL LPC solution prepared by dissolving in a 0.1% aqueous bovine serum albumin solution or a 0.1% aqueous bovine serum albumin solution (negative control group). Six hours after, bronchoalveola lavage was conducted, and the neutrophil infiltration in the recovered BALF was measured. In addition, Compound 53 or Compound 81 was suspended in a 0.5% aqueous methyl cellulose solution (solvent), and 100 mg/kg of the resultant suspension was orally administered to the mice 1 hour before LPC administration. In a […] control group, the solvent was administered instead of the test compound suspension. The infiltration of neutrophils was measured by measuring the number of cells in the recovered BALF with an automatic blood counter (Celltac α MEK-6158, Nihon Kohden Corporation, Tokyo) and then counting the number of neutrophils under a microscope using a smear prepared with Cytospin 3 (Shandon, Inc., Pittsburgh, Pa., USA). The number of neutrophils was calculated by multiplying the total number of cells by the percentage of the neutrophils. In this test, six mice per group were used for Compound 53, and six or seven mice per group were used for Compound 81.

Series [2] shares this test system. In words: Inhibitory activity on LPC-induced neutrophil infiltration into airway (Test Example 3). The format is in vivo. The following applies: 10 mg/kg orally 1 hour before intratracheal LPC; BALF 6 hours after LPC; male BALB/c mice. As to the method: Male BALB/c mice of 7-week old were intratracheally administered with 0.1 mL of a 1 mg/mL LPC solution prepared by dissolving in a 0.1% aqueous bovine serum albumin solution or a 0.1% aqueous bovine serum albumin solution (negative control group). Six hours after, bronchoalveola lavage was conducted, and the neutrophil infiltration in the recovered BALF was measured. In addition, Compound 118 or Compound 160 was suspended in a 0.5% aqueous methyl cellulose solution (solvent), and 10 mg/kg of the resultant suspension was orally administered to the mice 1 hour before LPC administration. In a […] control group, the solvent was administered instead of the test compound suspension. The infiltration of neutrophils was measured by measuring the number of cells in the recovered BALF with an automatic blood counter (Celltac α MEK-6158, Nihon Kohden Corporation, Tokyo) and then counting the number of neutrophils under a microscope using a smear prepared with Cytospin 3 (Shandon, Inc., Pittsburgh, Pa., USA). The number of neutrophils was calculated by multiplying the total number of cells by the percentage of the neutrophils. In this test, five mice per group were used for Compound 118, and six mice per group were used for Compound 160.

T1 sequence (P46093 whole entry): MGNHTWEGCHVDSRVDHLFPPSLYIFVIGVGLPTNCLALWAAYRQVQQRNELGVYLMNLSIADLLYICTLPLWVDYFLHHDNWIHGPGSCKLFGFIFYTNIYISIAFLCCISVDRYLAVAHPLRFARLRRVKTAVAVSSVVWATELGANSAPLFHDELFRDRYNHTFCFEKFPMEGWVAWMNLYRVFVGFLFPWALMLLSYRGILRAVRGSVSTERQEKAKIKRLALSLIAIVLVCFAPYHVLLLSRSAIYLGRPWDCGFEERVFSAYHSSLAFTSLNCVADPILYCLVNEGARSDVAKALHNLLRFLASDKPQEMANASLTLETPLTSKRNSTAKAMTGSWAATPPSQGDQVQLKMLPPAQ

The molecule `CCc1nc2c(C)cc(C)nc2n1Cc1cnc(Nc2ccccc2)nc1` (as salt: hydrochloride) displayed a melting point of 146 to 150 °C. `CCc1nc2c(C)cc(C)nc2n1Cc1ccc(C(=O)c2ccccc2)cc1` [Compound 1, 4-(2-Ethyl-5,7-dimethylimidazo[4,5-b]pyridin-3-ylmethyl)benzophenone]: the melting point was 98 °C. Besides, the inhibition at 1 µM on human GPR4 was found to be 31%. The matching figures for `CCc1nc2c(C)cc(C)nc2n1Cc1cccc(C(=NO)c2cccc(CN3CCCC3)c2)c1` [Compound 24, 1-(3-{[3-(2-Ethyl-5,7-dimethylimidazo[4,5-b]pyridin-3-ylmethyl)phenyl]hydroxyiminomethyl}benzyl)pyrrolidine]: 231 to 236 °C and 34%. As to `CCc1nc2c(C)cc(C)nc2n1Cc1ccc(NC(=O)c2cccc3ccccc23)cc1` [Compound 53], in series [1], the “suppression of increase in the number of neutrophils in BALF as compared with the positive control group” value (“suppression of increase” for short) is on record as 47%. For the same molecule, the “Inhibition rate (%)” value on human GPR4 came to 74%. For `CCc1nc2c(C)cc(C)nc2n1Cc1ccc(NC(=O)OC(C)(C)C)cc1` [Compound 81], the “suppression of increase” value in series [1] amounted to 42%. In addition, the “Inhibition rate (%)” value on human GPR4 turned out to be 77%. Take `CCc1nc2c(C)cc(C)nc2n1Cc1ccc(Nc2ccccc2)cc1` [Compound 97, {4-(2-Ethyl-5,7-dimethylimidazo[4,5-b]pyridin-3-ylmethyl)phenyl}phenylamine]: on human GPR4, the inhibition at 1 µM is 45%. With `CCc1nc2c(C)cc(C)nc2n1Cc1cccc(Nc2ccccc2)c1` [Compound 98], the “Inhibition rate (%)” value on human GPR4 is on record as 37%. For `CCc1nc2c(C)cc(C)nc2n1Cc1ccc(N[C@H]2CC[C@H](C(=O)NCCN3CCCC3)CC2)cc1` [Compound 118, trans-4-[4-(2-Ethyl-5,7-dimethyl-3H-imidazo[4,5-b]pyridin-3-ylmethyl)phenylamino]cyclohexanecarboxylic acid [2-(pyrrolidin-1-yl)ethyl]amide], in series [2], the “suppression of increase” value is 60%. Further, the inhibition at 1 µM at human GPR4 is 97%.

Turning to `CCc1nc2c(C)cc(C)nc2n1Cc1ccc(NCC2CCNCC2)cc1` [Compound 143, 4-[4-(2-Ethyl-5,7-dimethyl-3H-imidazo[4,5-b]pyridin-3-ylmethyl)phenylamino]methylpiperidine], at human GPR4, the inhibition at 1 µM was 97%.

Consider `Cc1cc(C)c2nc(C)n(Cc3ccc(NCC4CCN(C5CCOCC5)CC4)cc3)c2n1` [Compound 158, 4-[4-(2,5,7-Trimethyl-3H-imidazo[4,5-b]pyridin-3-ylmethyl)phenylamino]methyl-1-(4-tetrahydropyranyl)piperidine], for which the inhibition at 1 µM on human GPR4 is 83%. For the molecule `Cc1cc(C)c2nc(C)n(Cc3ccc(NCC4CCN(C5CCN(C)CC5)CC4)cc3)c2n1` [Compound 160, 4-[4-(2,5,7-Trimethyl-3H-imidazo[4,5-b]pyridin-3-ylmethyl)phenylamino]methyl-1-(1-methylpiperidin-4-yl)piperidine], the “suppression of increase” value in series [2] was 74%.

The values above are taken from patent publication US8507484B2, “Preventive and/or therapeutic agent for neutrophilic inflammatory diseases” (Kyowa Hakko Kirin Co., Ltd., priority 2004, dated 2013).
